Results published in PubChem BioAssay (NCI).
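At the GI50, growth is halved. TGI marks complete inhibition of growth.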

Assays:
Test in all cases: NCI tumour cell line growth inhibition, 384-well format
M14 melanoma = tested on: M14 melanoma
HOP-62 NSCLC = tested on: HOP-62 NSCLC
SNB-75 CNS = tested on: SNB-75 CNS
IGROV1 ovarian = tested on: IGROV1 ovarian
UACC-257 melanoma = tested on: UACC-257 melanoma
SF-295 CNS = tested on: SF-295 CNS
NCI-H460 NSCLC = tested on: NCI-H460 NSCLC
MDA-MB-435 melanoma = tested on: MDA-MB-435 melanoma
SK-MEL-5 melanoma = tested on: SK-MEL-5 melanoma
EKVX NSCLC = tested on: EKVX NSCLC
SN12C renal = tested on: SN12C renal
OVCAR-8 ovarian = tested on: OVCAR-8 ovarian
LOX IMVI melanoma = tested on: LOX IMVI melanoma
HCT-116 colon = tested on: HCT-116 colon
DU-145 prostate = tested on: DU-145 prostate
786-0 renal = tested on: 786-0 renal
MALME-3M melanoma = tested on: MALME-3M melanoma
HT29 colon = tested on: HT29 colon
HL-60(TB) leukemia = tested on: HL-60(TB) leukemia
OVCAR-4 ovarian = tested on: OVCAR-4 ovarian
SF-268 CNS = tested on: SF-268 CNS
SNB-19 CNS = tested on: SNB-19 CNS
SK-MEL-28 melanoma = tested on: SK-MEL-28 melanoma
NCI/ADR-RES ovarian = tested on: NCI/ADR-RES ovarian
U251 glioblastoma = tested on: U251 glioblastoma
A549 NSCLC = tested on: A549 NSCLC
UO-31 renal = tested on: UO-31 renal
SR leukemia = tested on: SR leukemia
UACC-62 melanoma = tested on: UACC-62 melanoma
K-562 leukemia = tested on: K-562 leukemia
T-47D breast = tested on: T-47D breast
MDA-MB-231 breast = tested on: MDA-MB-231 breast
NCI-H522 lung = tested on: NCI-H522 lung
SK-OV-3 ovarian = tested on: SK-OV-3 ovarian
BT-549 breast = tested on: BT-549 breast
HS 578T breast = tested on: HS 578T breast
MOLT-4 leukemia = tested on: MOLT-4 leukemia
ACHN renal = tested on: ACHN renal
SW-620 colon = tested on: SW-620 colon
CCRF-CEM leukemia = tested on: CCRF-CEM leukemia
COLO 205 colon = tested on: COLO 205 colon
CAKI-1 renal = tested on: CAKI-1 renal
RPMI-8226 leukemia = tested on: RPMI-8226 leukemia
OVCAR-3 ovarian = tested on: OVCAR-3 ovarian
HOP-92 NSCLC = tested on: HOP-92 NSCLC
KM12 colon = tested on: KM12 colon
A498 renal = tested on: A498 renal

CNCc1ccc(C)c(NC(=O)c2ccc(Nc3nc(-c4ccccc4)c4ccccc4n3)cc2)c1
GI50 (M14 melanoma): 2.03 µM | TGI (M14 melanoma): 3.47 µM | GI50 (HOP-62 NSCLC): 1.91 µM | TGI (HOP-62 NSCLC): 3.33 µM | GI50 (SNB-75 CNS): 1.85 µM | TGI (SNB-75 CNS): 3.3 µM | GI50 (IGROV1 ovarian): 1.81 µM | TGI (IGROV1 ovarian): 3.6 µM | GI50 (UACC-257 melanoma): 0.654 µM | TGI (UACC-257 melanoma): 1.6 µM | GI50 (SF-295 CNS): 1.85 µM | TGI (SF-295 CNS): 3.26 µM | GI50 (NCI-H460 NSCLC): 1.36 µM | TGI (NCI-H460 NSCLC): 2.71 µM | GI50 (MDA-MB-435 melanoma): 1.91 µM | TGI (MDA-MB-435 melanoma): 3.34 µM | GI50 (SK-MEL-5 melanoma): 1.39 µM | TGI (SK-MEL-5 melanoma): 2.69 µM | GI50 (EKVX NSCLC): 1.57 µM | TGI (EKVX NSCLC): 2.95 µM | GI50 (SN12C renal): 1.59 µM | TGI (SN12C renal): 2.96 µM | GI50 (OVCAR-8 ovarian): 1.64 µM | TGI (OVCAR-8 ovarian): 3.02 µM | GI50 (LOX IMVI melanoma): 1.55 µM | TGI (LOX IMVI melanoma): 2.91 µM | GI50 (HCT-116 colon): 1.73 µM | TGI (HCT-116 colon): 3.16 µM | GI50 (DU-145 prostate): 1.93 µM | TGI (DU-145 prostate): 3.48 µM | GI50 ([…]-0 renal): 1.5 µM | TGI (786-0 renal): 2.84 µM | GI50 (MALME-3M melanoma): 1.31 µM | TGI (MALME-3M melanoma): 2.59 µM | GI50 (HT29 colon): 1.41 µM | TGI (HT29 colon): 2.74 µM | GI50 (HL-60(TB) leukemia): 1.04 µM | TGI (HL-60(TB) leukemia): 2.4 µM | GI50 (OVCAR-4 ovarian): 1.86 µM | TGI (OVCAR-4 ovarian): 3.4 µM | GI50 (SF-268 CNS): 1.77 µM | TGI (SF-268 CNS): 3.17 µM | GI50 (SNB-19 CNS): 1.86 µM | TGI (SNB-19 CNS): 3.31 µM | GI50 (SK-MEL-28 melanoma): 1.69 µM | TGI (SK-MEL-28 melanoma): 3.06 µM | GI50 (NCI/ADR-RES ovarian): 1.86 µM | TGI (NCI/ADR-RES ovarian): 3.33 µM | GI50 (U251 glioblastoma): 1.73 µM | TGI (U251 glioblastoma): 3.13 µM | GI50 (A549 NSCLC): 1.8 µM | TGI (A549 NSCLC): 3.24 µM | GI50 (UO-31 renal): 1.97 µM | TGI (UO-31 renal): 3.4 µM | GI50 (SR leukemia): 0.342 µM | TGI (SR leukemia): 0.799 µM | GI50 (UACC-62 melanoma): 1.61 µM | TGI (UACC-62 melanoma): 2.97 µM | GI50 (K-562 leukemia): 1.4 µM | TGI (K-562 leukemia): 2.74 µM | GI50 (T-47D breast): 1.45 µM | TGI (T-47D breast): 2.78 µM | GI50 (MDA-MB-231 breast): 1.84 µM | TGI (MDA-MB-231 breast): 3.25 µM | GI50 (NCI-H522 lung): 1.84 µM | TGI (NCI-H522 lung): 3.25 µM | GI50 (SK-OV-3 ovarian): 1.78 µM | TGI (SK-OV-3 ovarian): 3.18 µM | GI50 (BT-549 breast): 1.7 µM | TGI (BT-549 breast): 3.09 µM | GI50 (HS 578T breast): 1.93 µM | TGI (HS 578T breast): 3.34 µM | GI50 (MOLT-4 leukemia): 1.51 µM | TGI (MOLT-4 leukemia): 2.85 µM | GI50 (ACHN renal): 1.84 µM | TGI (ACHN renal): 3.26 µM | GI50 (SW-620 colon): 1.85 µM | TGI (SW-620 colon): 3.28 µM | GI50 (CCRF-CEM leukemia): 1.58 µM | TGI (CCRF-CEM leukemia): 2.94 µM | GI50 (COLO 205 colon): 1.6 µM | TGI (COLO 205 colon): 2.96 µM | GI50 (CAKI-1 renal): 0.42 µM | TGI (CAKI-1 renal): 1.36 µM | GI50 (RPMI-8226 leukemia): 1.72 µM | TGI (RPMI-8226 leukemia): 3.1 µM | GI50 (OVCAR-3 ovarian): 1.78 µM | TGI (OVCAR-3 ovarian): 3.2 µM | GI50 (HOP-92 NSCLC): 1.79 µM | TGI (HOP-92 NSCLC): 3.18 µM | GI50 (KM12 colon): 1.42 µM | TGI (KM12 colon): 2.75 µM | GI50 (A498 renal): 1.63 µM | TGI (A498 renal): 3 µM
